Assay results published in US4929626A, “α-substituted 4-(quinolin-2-yl-methoxy)phenylacetic acids and esters and lipoxygenase inhibition therewith” (Bayer Aktiengesellschaft, priority 1988, dated 1990).
Structures can show the parent of a compound that is named as a salt.

What was measured:
[1] = tested on: lipoxygenase; assay: Lipoxygenase inhibition: release of leukotriene B4 (LTB4) by polymorphonuclear rat leukocytes (PMN) after Ca ionophore, reverse phase HPLC; type: cell-based
Method: (§1) The pharmacological activity data of the substances according to the invention are determined by the following method: As a measure of the lipoxygenase inhibition, the release of leukotriene B4 (LTB4) by polymorphonuclear rat leukocytes (PMN) was determined after addition of substances and Ca ionophore by means of reverse phase HPLC according to Borgeat, P. et al., Proc. Nat. Acad. Sci. 76, 2148-2152 (1979). The in vivo activity of the compounds was determined using the mouse ear inflammation model according to Young, J. M. et al., J. of Investigative Dermatology 82, 367-371 (1984).

[2] = tested on: mouse ear inflammation; assay: Mouse ear inflammation model (in vivo activity); conditions: 100 mg/kg p.o.
Method: as §1

Structure (SMILES)	IC50 [1]	Inhibition of inflammation % [2]
CCCCCC(O)c1cccc(OCc2ccc3ccccc3n2)c1 (stereo not shown) [2-[3-(1-hydroxyhexyl)phenoxymethyl]quinoline, reference compound]	200 nM	24%
CCCCCC(C(=O)OC)c1ccc(OCc2ccc3ccccc3n2)cc1 (stereo not shown) [Example 10, Methyl 2-[4-(quinolin-2-yl-methoxy)phenyl]heptanoate]		61%
C/C=C/CC(C(=O)OC)c1ccc(OCc2ccc3ccccc3n2)cc1 (stereo not shown) [Example 12, Methyl E-2-[4-(quinolin-2-yl-methoxy)phenyl]-4-hexenoate]		59%
CCCCC(C(=O)O)c1ccc(OCc2ccc3ccccc3n2)cc1 (stereo not shown) [Example 20, 2-[4-(Quinolin-2-yl-methoxy)phenyl]caproic acid]	55 nM	68%
CC(C)=CCC(C(=O)O)c1ccc(OCc2ccc3ccccc3n2)cc1 (stereo not shown) [Example 22, 2-[4-(Quinolin-2-yl-methoxy)phenyl]-5-methyl-4-hexenoic acid]		77%
CCCCC(C(=O)OCC(=O)OC)c1ccc(OCc2ccc3ccccc3n2)cc1 (stereo not shown) [Example 27, Methoxycarbonylmethyl 2-[4-(quinolin-2-yl-methoxy)phenyl]caproate hydrochloride]	63 nM	
CCCCC(C(=O)OCC(=O)O)c1ccc(OCc2ccc3ccccc3n2)cc1 (stereo not shown) [Example 29, Carboxymethyl 2-[4-(quinolin-2-yl-methoxy)phenyl]caproate]	55 nM	72%
